We go through one compound from patent US20080009500A1, “Alpha-helix mimetics and methods relating to the treatment of fibrotic disorders” (priority 2005, published 2008).

Experiment [1] relates to bleomycin induced fibrosis in C57/B16 mice. The experiment in a line: Murine model of bleomycin induced pulmonary fibrosis, lung sections stained for collagen (trichrome), body weight, survival. The format is in vivo. Here is the method: Murine models of bleomycin induced fibrosis have been developed in order to study fibrotic disease progression.
(§1) Using this murine model of pulmonary fibrosis in transgenic Bat-Gal mice, ICG-001 (5 mg/Kg/day, administered via minipump) blocked >95% of bleomycin-induced TCF/β-catenin transcription.
There is an absence of airway epithelium in lower left compared to upper left (see arrow heads) and extensive collagen deposition (lower left). On the sixth day, either saline (upper right) or ICG-001 (5 mgs/Kg/day) was administered for 10 days after which the mice were sacrificed and sectioned. Of interest is the upper right (saline treatment) showing lack of normal airway epithelialization, extensive collagen deposition and intra-airway hypercellularity (fibroblasts and inflammatory influx).
The procedures were performed using the animal model as described in Example 2 (FIG. 15), and the sectioned lungs were stained for collagen.

Experiment [2] deals with TCF/β-catenin transcription. Kind of experiment: Bleomycin model in Bat-Gal transgenic mice, X-Gal staining of lung sections (TCF/catenin-driven beta-galactosidase read-out). The format is in vivo. The method, then:
as §1
These mice have a Beta-Galactosidase transgene driven by a TCF/Catenin driven promoter (i.e. a read out for activated Wnt/catenin signaling). The mice were given intratracheal saline or bleomycin and either treated with ICG-001 (5 mgs/Kg/day subcutaneously) or saline as vehicle control. The mice were sacrificed and the lungs sectioned and stained with X-Gal (blue color) A) intratracheal bleo+saline. B) intracheal bleo+ICG-001 C) saline +saline.
The dose was selected because ICG-001 reduces TCF/β-Catenin driven β-Galactosidase expression >95% at 5 mgs/Kg/day.

A further experiment deals with S100A4. Kind of experiment: RT-PCR for S100A4 in bleomycin treated mice. The following applies: 5 mgs/Kg/day s.c. It is filed as in vivo. The source says: (§2) FIGS. 16 and 17 show RT-PCR data for S100A4 (FIG. 16) and collagen1A2 (FIG. 17), which are increased in the bleomycin treated mice (treated with saline control).
The next experiment deals with Aquaporin 5. Kind of experiment: Aquaporin 5 immunostaining of lung tissue in the bleomycin animal model. It is filed as in vivo, mice. Conditions: bleomycin and ICG-001 vs bleomycin alone. The method, then: The aquaporins are water channels expressed in a variety of cell types. Aquaporin 5 is involved in the transportation of water across the apical surface of the alveolar epithelium and the epithelia of the submucosal glands in the upper airway and nasopharynx. (Krane, C. M., P.N.A.S. 98:14192-4, 2001; Yang, F. J. Biol. Chem. 278:32173-80, 2003). Because aquaporin 5 is a marker of Type 1 (differentiated) lung epithelium, its expression was assayed in lung tissue treated with bleomycin (FIG. 22A), bleomycin and ICG-001 (FIG. 22B), and saline (FIG. 22C), using the animal model as described in Example 2 (FIG. 15), and immunostaining with an antibody specific for Aquaporin 5.

The next experiment deals with collagen1A2. Kind of experiment: RT-PCR for collagen1A2 in bleomycin treated mice. It is filed as in vivo. The following applies: 5 mgs/Kg/day s.c.
Excerpt: as §2

For another experiment, the system named is IPF patient fibroblasts. The experiment in a line: Western blots for S100A4 and E-Cadherin on whole cell lysates of cultured IPF fibroblasts. It is filed as cell-based, human. Here is the method:
Western blots for S100A4 (also know as FSP-1 or fibroblast specific protein-1) and E-Cadherin were performed on whole cell lysates (FIG. 20).
(In general: In western blotting, separated proteins are transferred to a membrane and probed.)

The mark [3] stands for this setting: C57/B16 mice, bleomycin 5 days, then 5 mgs/Kg/day for 10 days.
Where [4] appears, read: bleomycin and ICG-001 treatment.
Where [5] appears, read: IPF patient fibroblasts, RPMI 1640+10% FBS, 2 days.

As to `O=C1[C@H](Cc2ccc(O)cc2)N2C(=O)CCN(C(=O)NCc3ccccc3)[C@H]2CN1Cc1cccc2ccccc12` [ICG-001], the mortality entry in experiment [1] (5 mg/Kg/day) is listed as “reduced mortality”. Further, the disease progression result in experiment [1] (5 mg/Kg/day, judged by mortality, histopathology and endogenous gene expression) is recorded as “not only halted but reversed disease progression”. In experiment [1] (setting [3]), the “airway appearance in trichrome-stained lung sections” value is given as “essentially normal”, the body weight result is given as “regained normal body weight” and the “collagen levels in lung sections” value is “normal collagen levels”. Also, the survival entry in experiment [1] (C57/B16 mice, bleomycin 5 days, then 5 mgs/Kg/day for 10 days, untreated controls did not survive) is listed as “survived”. Moreover, in experiment [1] (setting [4]), the “alveolar fibrosis (lungs stained for collagen)” value is on record as “prevented alveolar fibrosis” and the “interstitial fibrosis (lungs stained for collagen)” value is recorded as “prevented interstitial fibrosis”. In addition, the fibrosis entry in experiment [1] (over the 25 days of treatment) is “reversed fibrosis”. Also, in experiment [2] (5 mgs/Kg/day), the “reduction of TCF/β-Catenin driven β-Galactosidase expression” value was greater than 95%. Besides, the “bleomycin-induced TCF/β-catenin transcription blocked” value in experiment [2] (transgenic Bat-Gal mice, 5 mg/Kg/day via minipump) is on record as greater than 95%. In addition, the “S100A4 message (RT-PCR)” value in the experiment on S100A4 is “reduced essentially to negative control”. For the same compound, the “aquaporin 5 expression (immunostaining)” value in the experiment on Aquaporin 5 is given as “greatly increased”. In the experiment on collagen1A2, the “collagen1A2 message (RT-PCR)” value was “reduced essentially to negative control”. Further, the “S100A4 expression (whole cell lysates)” value with IPF patient fibroblasts (ATCC IPF cells, RPMI1640+10% FBS, 2 days) was “decreased S100A4 expression”. In the experiment with IPF patient fibroblasts (IPF patient fibroblasts), the “E-cadherin expression at the mRNA level” value was “also true at the mRNA level”. Besides, in the experiment on IPF patient fibroblasts (setting [5]), the “E-cadherin expression (Western blot, whole cell lysates)” value is given as “increased E-cadherin expression” and the “S100A4 expression (Western blot, whole cell lysates)” value was “decreased S100A4 expression”.
